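96-well plates; 48 h exposure; 5 concentrations. Endpoints by linear interpolation between flanking doses. Not reached: highest tested concentration assigned. Here, GI50 denotes the concentration required for 50% inhibition of growth. Definition used: TGI = concentration required for complete inhibition of growth.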
Key:
Assay in all cases: NCI-60 cell line screen, 48 h
IGROV1 ovarian = test system: IGROV1 ovarian
MOLT-4 leukemia = test system: MOLT-4 leukemia
SN12C renal = test system: SN12C renal
SNB-19 CNS = test system: SNB-19 CNS
OVCAR-3 ovarian = test system: OVCAR-3 ovarian
SF-295 CNS = test system: SF-295 CNS
DU-145 prostate = test system: DU-145 prostate
EKVX NSCLC = test system: EKVX NSCLC
PC-3 prostate = test system: PC-3 prostate
MALME-3M melanoma = test system: MALME-3M melanoma
HOP-62 NSCLC = test system: HOP-62 NSCLC
HCT-15 colon = test system: HCT-15 colon
OVCAR-5 ovarian = test system: OVCAR-5 ovarian
SW-620 colon = test system: SW-620 colon
BT-549 breast = test system: BT-549 breast
COLO 205 colon = test system: COLO 205 colon
ACHN renal = test system: ACHN renal
UACC-62 melanoma = test system: UACC-62 melanoma
HS 578T breast = test system: HS 578T breast
RXF 393 renal = test system: RXF 393 renal
K-562 leukemia = test system: K-562 leukemia
RPMI-8226 leukemia = test system: RPMI-8226 leukemia
NCI-H226 lung = test system: NCI-H226 lung
CCRF-CEM leukemia = test system: CCRF-CEM leukemia
CAKI-1 renal = test system: CAKI-1 renal
SR leukemia = test system: SR leukemia
U251 CNS = test system: U251 CNS
T-47D breast = test system: T-47D breast
NCI-H522 lung = test system: NCI-H522 lung
KM12 colon = test system: KM12 colon
SF-268 CNS = test system: SF-268 CNS
UO-31 renal = test system: UO-31 renal
HT29 colon = test system: HT29 colon
TK-10 renal = test system: TK-10 renal
OVCAR-4 ovarian = test system: OVCAR-4 ovarian
A498 renal = test system: A498 renal
MDA-MB-231 breast = test system: MDA-MB-231 breast
HOP-92 NSCLC = test system: HOP-92 NSCLC
SNB-75 CNS = test system: SNB-75 CNS
SK-OV-3 ovarian = test system: SK-OV-3 ovarian
SK-MEL-5 melanoma = test system: SK-MEL-5 melanoma
A549 NSCLC = test system: A549 NSCLC
SK-MEL-28 melanoma = test system: SK-MEL-28 melanoma
SK-MEL-2 melanoma = test system: SK-MEL-2 melanoma
UACC-257 melanoma = test system: UACC-257 melanoma
SF-539 CNS = test system: SF-539 CNS
MDA-MB-435 = test system: MDA-MB-435
786-0 renal = test system: 786-0 renal
MCF7 breast = test system: MCF7 breast
M14 melanoma = test system: M14 melanoma
HCC-2998 colon = test system: HCC-2998 colon
NCI-H460 lung = test system: NCI-H460 lung
LOX IMVI melanoma = test system: LOX IMVI melanoma
HCT-116 colon = test system: HCT-116 colon
OVCAR-8 ovarian = test system: OVCAR-8 ovarian
HL-60(TB) leukemia = test system: HL-60(TB) leukemia
NCI/ADR-RES ovarian = test system: NCI/ADR-RES ovarian

CNCc1cccc2c1OCCCCCCC(C)(O)CC(C)(C)S(=O)(=O)c1ccc(cc1)-c1cnc(N)c(n1)C(=O)N2 (stereo unspecified)
GI50 (IGROV1 ovarian): 0.433 µM
TGI (IGROV1 ovarian): 4.48 µM
GI50 (MOLT-4 leukemia): 0.0151 µM
TGI (MOLT-4 leukemia): 2.57 µM
GI50 (SN12C renal): 1.17 µM
TGI (SN12C renal): 12.7 µM
GI50 (SNB-19 CNS): 1.88 µM
TGI (SNB-19 CNS): 5.46 µM
GI50 (OVCAR-3 ovarian): 0.277 µM
GI50 (SF-295 CNS): 1.41 µM
TGI (SF-295 CNS): 2.84 µM
GI50 (DU-145 prostate): 0.603 µM
TGI (DU-145 prostate): 3.24 µM
GI50 (EKVX NSCLC): 1.87 µM
TGI (EKVX NSCLC): 6.97 µM
GI50 (PC-3 prostate): 0.91 µM
TGI (PC-3 prostate): 9.17 µM
GI50 (MALME-3M melanoma): 1.21 µM
TGI (MALME-3M melanoma): 2.58 µM
GI50 (HOP-62 NSCLC): 1.32 µM
TGI (HOP-62 NSCLC): 3.75 µM
GI50 (HCT-15 colon): 0.092 µM
TGI (HCT-15 colon): 1.31 µM
GI50 (OVCAR-5 ovarian): 2.24 µM
TGI (OVCAR-5 ovarian): 10.3 µM
GI50 (SW-620 colon): 1.36 µM
TGI (SW-620 colon): 4.17 µM
GI50 (BT-549 breast): 0.762 µM
TGI (BT-549 breast): 8.99 µM
GI50 (COLO 205 colon): 0.0664 µM
TGI (COLO 205 colon): 1.52 µM
GI50 (ACHN renal): 0.0306 µM
TGI (ACHN renal): 2.56 µM
GI50 (UACC-62 melanoma): 1.69 µM
TGI (UACC-62 melanoma): 3.34 µM
GI50 (HS 578T breast): 0.381 µM
TGI (HS 578T breast): 2.91 µM
GI50 (RXF 393 renal): 0.0477 µM
TGI (RXF 393 renal): 1.37 µM
GI50 (K-562 leukemia): 0.0436 µM
TGI (K-562 leukemia): > 100 µM
GI50 (RPMI-8226 leukemia): 0.637 µM
TGI (RPMI-8226 leukemia): 3 µM
GI50 (NCI-H226 lung): 1.13 µM
TGI (NCI-H226 lung): 6.21 µM
GI50 (CCRF-CEM leukemia): 0.0138 µM
TGI (CCRF-CEM leukemia): > 20.4 µM
GI50 (CAKI-1 renal): 0.401 µM
TGI (CAKI-1 renal): 2.27 µM
TGI (SR leukemia): 1.19 µM
GI50 (U251 CNS): 0.366 µM
TGI (U251 CNS): 1.94 µM
GI50 (T-47D breast): 6.44 µM
TGI (T-47D breast): 32.7 µM
GI50 (NCI-H522 lung): 0.548 µM
TGI (NCI-H522 lung): 2.07 µM
GI50 (KM12 colon): 1.32 µM
TGI (KM12 colon): 2.94 µM
GI50 (SF-268 CNS): 1.27 µM
TGI (SF-268 CNS): 3.57 µM
GI50 (UO-31 renal): 0.224 µM
TGI (UO-31 renal): 2.21 µM
GI50 (HT29 colon): 0.0515 µM
TGI (HT29 colon): 1.89 µM
GI50 (TK-10 renal): 3.29 µM
TGI (TK-10 renal): 12.2 µM
GI50 (OVCAR-4 ovarian): 1.13 µM
TGI (OVCAR-4 ovarian): 2.72 µM
GI50 (A498 renal): 3.58 µM
TGI (A498 renal): 16 µM
GI50 (MDA-MB-231 breast): 0.953 µM
TGI (MDA-MB-231 breast): 3.14 µM
GI50 (HOP-92 NSCLC): 10.2 µM
TGI (HOP-92 NSCLC): 25.9 µM
GI50 (SNB-75 CNS): 0.453 µM
TGI (SNB-75 CNS): 6.46 µM
GI50 (SK-OV-3 ovarian): 1.85 µM
TGI (SK-OV-3 ovarian): 18.4 µM
GI50 (SK-MEL-5 melanoma): 1.3 µM
TGI (SK-MEL-5 melanoma): 2.57 µM
GI50 (A549 NSCLC): 0.123 µM
TGI (A549 NSCLC): 2.46 µM
GI50 (SK-MEL-28 melanoma): 1.24 µM
TGI (SK-MEL-28 melanoma): 2.54 µM
GI50 (SK-MEL-2 melanoma): 1.85 µM
TGI (SK-MEL-2 melanoma): 4.25 µM
GI50 (UACC-257 melanoma): 1.29 µM
TGI (UACC-257 melanoma): 2.72 µM
GI50 (SF-539 CNS): 0.0274 µM
TGI (SF-539 CNS): 2.01 µM
GI50 (MDA-MB-435): 0.558 µM
TGI (MDA-MB-435): 2.05 µM
GI50 (786-0 renal): 0.0279 µM
TGI (786-0 renal): 2.1 µM

Cc1ccc(C2=Nn3c(nnc3-c3ccccc3)SC2)cc1
GI50 (IGROV1 ovarian): 0.801 µM
TGI (IGROV1 ovarian): > 100 µM
GI50 (MOLT-4 leukemia): 0.461 µM
TGI (MOLT-4 leukemia): > 100 µM
GI50 (MCF7 breast): 1.6 µM
TGI (MCF7 breast): > 100 µM
GI50 (SN12C renal): 0.799 µM
TGI (SN12C renal): > 100 µM
GI50 (M14 melanoma): 0.435 µM
TGI (M14 melanoma): > 100 µM
GI50 (SNB-19 CNS): 3.5 µM
TGI (SNB-19 CNS): > 100 µM
GI50 (HCC-2998 colon): 1.04 µM
TGI (HCC-2998 colon): > 100 µM
GI50 (SF-295 CNS): 0.845 µM
TGI (SF-295 CNS): > 100 µM
GI50 (DU-145 prostate): 2.85 µM
TGI (DU-145 prostate): > 100 µM
GI50 (EKVX NSCLC): 6.84 µM
TGI (EKVX NSCLC): > 100 µM
GI50 (PC-3 prostate): 0.815 µM
TGI (PC-3 prostate): > 100 µM
GI50 (MALME-3M melanoma): > 100 µM
TGI (MALME-3M melanoma): > 100 µM
GI50 (HOP-62 NSCLC): 1.23 µM
TGI (HOP-62 NSCLC): > 100 µM
GI50 (HCT-15 colon): 0.416 µM
TGI (HCT-15 colon): > 100 µM
GI50 (OVCAR-5 ovarian): 2.57 µM
TGI (OVCAR-5 ovarian): > 100 µM
GI50 (SW-620 colon): 0.378 µM
TGI (SW-620 colon): > 100 µM
GI50 (BT-549 breast): 0.385 µM
TGI (BT-549 breast): > 100 µM
GI50 (COLO 205 colon): 0.492 µM
TGI (COLO 205 colon): 24.5 µM
GI50 (ACHN renal): 3.27 µM
TGI (ACHN renal): > 100 µM
GI50 (NCI-H460 lung): 0.389 µM
TGI (NCI-H460 lung): 50 µM
GI50 (LOX IMVI melanoma): 0.838 µM
TGI (LOX IMVI melanoma): > 100 µM
GI50 (UACC-62 melanoma): 0.536 µM
TGI (UACC-62 melanoma): > 100 µM
GI50 (HS 578T breast): 1.2 µM
TGI (HS 578T breast): 25.6 µM
GI50 (RXF 393 renal): 1.87 µM
TGI (RXF 393 renal): 19.7 µM
GI50 (K-562 leukemia): 0.321 µM
TGI (K-562 leukemia): > 100 µM
GI50 (RPMI-8226 leukemia): 0.895 µM
TGI (RPMI-8226 leukemia): > 100 µM
GI50 (NCI-H226 lung): 3.45 µM
TGI (NCI-H226 lung): > 100 µM
GI50 (HCT-116 colon): 0.428 µM
TGI (HCT-116 colon): > 100 µM
GI50 (CCRF-CEM leukemia): 1.66 µM
TGI (CCRF-CEM leukemia): > 100 µM
GI50 (CAKI-1 renal): 0.75 µM
TGI (CAKI-1 renal): > 100 µM
GI50 (SR leukemia): 0.251 µM
TGI (SR leukemia): > 100 µM
GI50 (U251 CNS): 0.528 µM
TGI (U251 CNS): > 100 µM
GI50 (T-47D breast): 0.869 µM
TGI (T-47D breast): > 100 µM
GI50 (NCI-H522 lung): 0.44 µM
TGI (NCI-H522 lung): 2.54 µM
GI50 (KM12 colon): 17.3 µM
TGI (KM12 colon): > 100 µM
GI50 (SF-268 CNS): 6.37 µM
TGI (SF-268 CNS): > 100 µM
GI50 (UO-31 renal): 2.15 µM
TGI (UO-31 renal): > 100 µM
GI50 (OVCAR-8 ovarian): 1.78 µM
TGI (OVCAR-8 ovarian): 84.6 µM
GI50 (HT29 colon): 0.412 µM
TGI (HT29 colon): 3.53 µM
GI50 (TK-10 renal): 54.1 µM
TGI (TK-10 renal): > 100 µM
GI50 (OVCAR-4 ovarian): 6.28 µM
TGI (OVCAR-4 ovarian): > 100 µM
GI50 (A498 renal): 0.445 µM
TGI (A498 renal): 5.23 µM
GI50 (MDA-MB-231 breast): 0.497 µM
TGI (MDA-MB-231 breast): > 100 µM
GI50 (HOP-92 NSCLC): 2.58 µM
TGI (HOP-92 NSCLC): > 100 µM
GI50 (SNB-75 CNS): 0.392 µM
TGI (SNB-75 CNS): 5.27 µM
GI50 (SK-OV-3 ovarian): 1.76 µM
TGI (SK-OV-3 ovarian): > 100 µM
GI50 (SK-MEL-5 melanoma): 0.595 µM
TGI (SK-MEL-5 melanoma): > 100 µM
GI50 (A549 NSCLC): 0.702 µM
TGI (A549 NSCLC): > 100 µM
GI50 (SK-MEL-28 melanoma): 27.4 µM
TGI (SK-MEL-28 melanoma): > 100 µM
GI50 (HL-60(TB) leukemia): 0.333 µM
TGI (HL-60(TB) leukemia): > 100 µM
GI50 (SK-MEL-2 melanoma): 0.921 µM
TGI (SK-MEL-2 melanoma): 96.9 µM
GI50 (NCI/ADR-RES ovarian): 0.262 µM
TGI (NCI/ADR-RES ovarian): 0.881 µM
GI50 (UACC-257 melanoma): > 100 µM
TGI (UACC-257 melanoma): > 100 µM
GI50 (SF-539 CNS): 0.925 µM
TGI (SF-539 CNS): 4.76 µM
GI50 (MDA-MB-435): 0.196 µM
TGI (MDA-MB-435): 0.459 µM
GI50 (786-0 renal): 6.02 µM
TGI (786-0 renal): > 100 µM
